“And” between values parts separate entries of the source, which are not always exact repeats. Equal values may be shown once.
Tests used:
Type in all cases: binding
VC0430 (VcGluP) wildtype [1] = biological target: T1, VC0430 (VcGluP) wildtype (Vibrio cholerae, UniProt Q9KUT5)
VC0430 (VcGluP) wildtype [2] = biological target: T1, VC0430 (VcGluP) wildtype; assay: biochemical
VcGluP Y45A = VcGluP Y45A (Vibrio cholerae, UniProt Q9KUT5, Y45A)
VcGluP S75A = VcGluP S75A (Vibrio cholerae, UniProt Q9KUT5, S75A)
VcGluP Q93A = VcGluP Q93A (Vibrio cholerae, UniProt Q9KUT5, Q93A)
VcGluP E125A = VcGluP E125A (Vibrio cholerae, UniProt Q9KUT5, E125A)
VcGluP Y200A = VcGluP Y200A (Vibrio cholerae, UniProt Q9KUT5, Y200A)
VcGluP M201A = VcGluP M201A (Vibrio cholerae, UniProt Q9KUT5, M201A)

O=C(O)CCC(=O)C(=O)O [α-ketoglutarate]
Average Tm (VC0430 (VcGluP) wildtype [1]): 47.39 °C
Tm Replicate 1 (VC0430 (VcGluP) wildtype [1]): 50.71 °C
Tm Replicate 2 (VC0430 (VcGluP) wildtype [1]): 45.74 °C
Tm Replicate 3 (VC0430 (VcGluP) wildtype [1]): 45.74 °C
change in VC0430's Tm (Tm increase) (VC0430 (VcGluP) wildtype [1]): no change

N[C@H](CCC(=O)O)C(=O)O [D-glutamate]
Average Tm (VC0430 (VcGluP) wildtype [1]): 58.65 °C
Tm Replicate 1 (VC0430 (VcGluP) wildtype [1]): 58.65 °C
Tm Replicate 2 (VC0430 (VcGluP) wildtype [1]): 58.65 °C
Tm Replicate 3 (VC0430 (VcGluP) wildtype [1]): 58.65 °C
Kd (VC0430 (VcGluP) wildtype [2]): 24.5 ± 10.6 µM

N[C@@H](CCC(=O)O)C(=O)O [L-glutamate]
Kd (VC0430 (VcGluP) wildtype [2]): 0.065 ± 0.031 µM
ligand concentration giving maximum fluorescence enhancement (VcGluP Y45A): ≤ 50 µM
ligand concentration giving maximum fluorescence enhancement (VcGluP S75A): ≤ 50 µM
ligand concentration needed to saturate fluorescence enhancement (VcGluP Q93A): a higher concentration was required
ligand concentration giving maximum fluorescence enhancement (VcGluP E125A): ≤ 50 µM
ligand concentration giving maximum fluorescence enhancement (VcGluP Y200A): ≤ 50 µM
ligand concentration giving maximum fluorescence enhancement (VcGluP M201A): ≤ 50 µM

O=C(O)CCCCC(=O)O [adipate]
Average Tm (VC0430 (VcGluP) wildtype [1]): 44.74 °C
Tm Replicate 1 (VC0430 (VcGluP) wildtype [1]): 43.75 °C
Tm Replicate 2 (VC0430 (VcGluP) wildtype [1]): 45.74 °C
Tm Replicate 3 (VC0430 (VcGluP) wildtype [1]): 44.74 °C
change in VC0430's Tm (Tm increase) (VC0430 (VcGluP) wildtype [1]): no change

N[C@@H](CC(=O)O)C(=O)O [L-aspartate]
Average Tm (VC0430 (VcGluP) wildtype [1]): 47.06 °C
Tm Replicate 1 (VC0430 (VcGluP) wildtype [1]): 47.72 °C
Tm Replicate 2 (VC0430 (VcGluP) wildtype [1]): 45.74 °C
Tm Replicate 3 (VC0430 (VcGluP) wildtype [1]): 47.73 °C
change in VC0430's Tm (Tm increase) (VC0430 (VcGluP) wildtype [1]): no change

NC(=O)CCC(N)C(=O)O (stereo in doubt) [D-glutamine]
Average Tm (VC0430 (VcGluP) wildtype [1]): 46.40 °C and 47.06 °C and 48.72 °C
Tm Replicate 1 (VC0430 (VcGluP) wildtype [1]): 46.73 °C and 46.72 °C and 48.72 °C
Tm Replicate 2 (VC0430 (VcGluP) wildtype [1]): 45.74 °C and 47.72 °C and 48.72 °C
Tm Replicate 3 (VC0430 (VcGluP) wildtype [1]): 46.73 °C (2×) and 48.72 °C
fluorescence enhancement in titration (Kd could not be determined) (VC0430 (VcGluP) wildtype [2]): lack of fluorescence enhancement

O=C(O)[C@@H]1CCC(O)=N1 [L-pyroglutamate]
effect on VcGluP's stability (DSF) (VC0430 (VcGluP) wildtype [1]): enhanced VcGluP’s stability in a dose-dependent manner
Kd (VC0430 (VcGluP) wildtype [2]): 50 ± 16 µM

NCCCC[C@H](N)C(=O)O [L-lysine]
Average Tm (VC0430 (VcGluP) wildtype [1]): 44.41 °C
Tm Replicate 1 (VC0430 (VcGluP) wildtype [1]): 43.75 °C
Tm Replicate 2 (VC0430 (VcGluP) wildtype [1]): 44.74 °C
Tm Replicate 3 (VC0430 (VcGluP) wildtype [1]): 44.74 °C
change in VC0430's Tm (Tm increase) (VC0430 (VcGluP) wildtype [1]): no change

NC(=O)CC[C@H](N)C(=O)O [L-glutamine]
Tm Replicate 2 (VC0430 (VcGluP) wildtype [1]): 50.70 °C and 53.68 °C and 55.67 °C and 50.71 °C
Kd (VC0430 (VcGluP) wildtype [2]): 11 ± 2 µM
